Legend:
delF508-CFTR-HRP = target: T1, delF508-CFTR-HRP (Homo sapiens, UniProt P13569, DEL508-508); experiment: Measurement of delF508-CFTR-HRP surface expression in CFBE41o- cells (HRP luminescence); format: cell-based; conditions: for EC50: mean of at least two replicates; for Emax: CFBE41o-, read-out: DelF508-CFTR-HRP Amax %;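 on DelF508-CFTR-HRP Amax %: percent efficacy relative to a reference CFTR corrector compound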
T1 construct: expressed in transfected cells
Procedure, shortened: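 EC50 derived by logistic regression of triplicate surface-HRP luminescence, plate-normalized to the lowest-concentration median. Doxycycline (500 ng/mL, 48 h) induced delF508-CFTR-HRP in CFBE41o- cells; compounds then applied 24 h at 37° C, 10 μM top, 3-fold over 10 points.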

delF508-CFTR = target: T2, delF508-CFTR (Homo sapiens, UniProt P13569, DEL508-508); experiment: delF508-CFTR functional activity in primary human bronchial epithelial cells (HBECs), Multi-Transepithelial Clamp Circuit (MTECC-24) assay, equivalent short circuit current; format: cell-based; conditions: primary CF HBECs; for MTECC24 CFHBEC-Amax %: relative to reference combination 2 μM 3-(6-(1-(2,2-difluorobenzo[d][1,3]dioxol-5-yl)cyclopropane-1-carboxamido)-3-methylpyridin-2-yl)benzoic acid (24 h) + 0.5 μM N-(2,4-di-tert-butyl-5-hydroxyphenyl)-4-oxo-1,4-dihydroquinoline-3-carboxamide; for EC50: test compound added 24 h before assay, potentiator (S)-3-amino-6-methoxy-N-(3,3,3-trifluoro-2-hydroxy-2-methylpropyl)-5-(trifluoromethyl)picolinamide present at assay, mean of at least two replicates, read-out: MTECC24 CFHBEC-EC50
T2 construct: functional activity of the CFTR channel (Chloride ion transport) in patient derived primary human bronchial epithelial cells; host or cells: patient-derived primary human bronchial epithelial cells (HBECs), delF508-CFTR
Procedure, shortened: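 Compound acted as corrector on differentiated primary delF508-CFTR bronchial cultures, first 24 h basolaterally, then 45 min both sides before reading. Equivalent short circuit current was recorded during sequential forskolin and potentiator addition. EC50 came from 10-point, 1-in-3 dilution curves against the 0.1% DMSO baseline.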

T2 sequence (P13569 with tags, fused parts or gaps DEL508-508): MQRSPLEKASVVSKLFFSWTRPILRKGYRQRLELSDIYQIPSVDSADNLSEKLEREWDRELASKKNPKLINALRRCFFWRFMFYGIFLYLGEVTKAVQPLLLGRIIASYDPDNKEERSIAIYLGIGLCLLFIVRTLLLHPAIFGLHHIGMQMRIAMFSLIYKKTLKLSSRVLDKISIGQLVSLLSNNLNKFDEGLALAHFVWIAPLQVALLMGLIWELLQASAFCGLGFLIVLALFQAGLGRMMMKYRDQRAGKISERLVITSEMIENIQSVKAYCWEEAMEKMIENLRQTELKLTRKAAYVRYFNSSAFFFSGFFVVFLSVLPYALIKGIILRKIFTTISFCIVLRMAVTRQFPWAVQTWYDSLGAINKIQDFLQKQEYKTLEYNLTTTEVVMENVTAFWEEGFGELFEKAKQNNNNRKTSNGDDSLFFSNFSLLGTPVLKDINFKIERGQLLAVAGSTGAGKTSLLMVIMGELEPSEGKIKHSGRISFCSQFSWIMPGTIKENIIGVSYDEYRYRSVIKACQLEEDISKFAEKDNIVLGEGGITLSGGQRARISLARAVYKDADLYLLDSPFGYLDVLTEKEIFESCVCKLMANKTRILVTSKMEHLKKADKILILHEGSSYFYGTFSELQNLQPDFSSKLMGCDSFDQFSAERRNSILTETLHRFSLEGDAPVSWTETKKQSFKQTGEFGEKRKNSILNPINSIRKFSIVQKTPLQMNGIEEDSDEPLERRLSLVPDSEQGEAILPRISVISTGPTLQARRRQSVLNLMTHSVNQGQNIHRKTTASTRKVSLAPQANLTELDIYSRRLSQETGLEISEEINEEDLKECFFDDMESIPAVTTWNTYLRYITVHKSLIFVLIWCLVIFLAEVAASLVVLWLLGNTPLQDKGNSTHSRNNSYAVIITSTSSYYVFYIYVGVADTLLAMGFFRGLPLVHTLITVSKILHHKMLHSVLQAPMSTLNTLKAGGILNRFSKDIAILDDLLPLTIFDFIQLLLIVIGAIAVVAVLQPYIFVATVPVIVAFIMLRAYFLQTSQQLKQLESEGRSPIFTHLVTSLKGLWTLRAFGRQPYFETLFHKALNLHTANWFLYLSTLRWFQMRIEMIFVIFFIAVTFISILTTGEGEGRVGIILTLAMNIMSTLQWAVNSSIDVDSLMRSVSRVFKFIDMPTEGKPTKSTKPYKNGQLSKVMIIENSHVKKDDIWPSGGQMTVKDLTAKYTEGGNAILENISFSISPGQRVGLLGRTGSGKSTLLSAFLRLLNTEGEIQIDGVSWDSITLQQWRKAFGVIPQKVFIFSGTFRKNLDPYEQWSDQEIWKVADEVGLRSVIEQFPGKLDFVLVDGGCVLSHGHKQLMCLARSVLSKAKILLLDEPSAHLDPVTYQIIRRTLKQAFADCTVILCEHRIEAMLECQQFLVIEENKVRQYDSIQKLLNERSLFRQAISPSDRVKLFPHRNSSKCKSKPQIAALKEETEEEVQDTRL
T1 sequence (P13569 with tags, fused parts or gaps DEL508-508): as above

Row | SMILES | DelF508-CFTR-HRP Amax % (delF508-CFTR-HRP) [%] | EC50 (delF508-CFTR-HRP) [nM] | MTECC24 CFHBEC-Amax % (delF508-CFTR) [%] | EC50 (delF508-CFTR) [nM] | Emax (delF508-CFTR-HRP) [%]
1 | Cc1ccc(C2CC=CCC2)c(OC2(C(=O)NS(=O)(=O)c3cccc(N4CC(C)(O)C4)n3)CC2)c1 (centres unmarked) [Example 4-22, N-((6-(3-hydroxy-3-methylazetidin-1-yl)pyridin-2-yl)sulfonyl)-1-((4-methyl-1′,2′,3′,6′-tetrahydro-[1,1′-biphenyl]-2-yl)oxy)cyclopropanecarboxamide] |  | 3670 | 62 | 12 | 453
2 | Cc1ccc(OC2CCC3CCCCC3C2)c(OC2(C(=O)NS(=O)(=O)c3cccc(N4CC[C@H](O)C4)n3)CC2)c1 (stereo partly drawn) [Example 6-9, 1-(2-((decahydronaphthalen-2-yl)oxy)-5-methylphenoxy)-N-((6-((S)-3-hydroxypyrrolidin-1-yl)pyridin-2-yl)sulfonyl)cyclopropanecarboxamide] |  | 1280 | 107.4 | 289 | 382
3 | Cc1ccc(C2CCC(F)(F)CC2)c(OC2(C(=O)NS(=O)(=O)c3cccc(N4CCC5(CC4)CC(=O)c4cc(F)ccc4N5)n3)CC2)c1 [Example 3-1, 1-(2-(4,4-Difluorocyclohexyl)-5-methylphenoxy)-N-((6-(6′-fluoro-4′-oxo-3′,4′-dihydro-1′H-spiro[piperidine-4,2′-quinolin]-1-yl)pyridin-2-yl)sulfonyl)cyclopropanecarboxamide] |  | 3070 | 34 | 28 | 184
4 | Cc1ccc(C2CCCCCC2)c(OC2(C(=O)NS(=O)(=O)c3cccc(N)n3)CC2)c1 [Example 1-6, N-((6-Aminopyridin-2-yl)sulfonyl)-1-(2-cycloheptyl-5-methylphenoxy)cyclopropane-1-carboxamide] |  | 1310 | 87 | 2 | 765
5 | CC1(O)CCN(c2cccc(S(=O)(=O)NC(=O)C3(Oc4cc(Cl)ccc4C4CC5(CCC5)C4)CC3)n2)CC1 [Example 7-12, 1-(5-Chloro-2-(spiro[3.3]heptan-2-yl)phenoxy)-N-((6-(4-hydroxy-4-methylpiperidin-1-yl)pyridin-2-yl)sulfonyl)cyclopropane-1-carboxamide] |  | 1090 | 152.6 | 195 | 529
6 | Cc1ccc(C2CCCCC2)c(OC2(C(=O)NS(=O)(=O)c3cccc(N4CCC(N)(C(F)(F)F)CC4)n3)CC2)c1 [Example 2-17, N-((6-(4-Amino-4-(trifluoromethyl)piperidin-1-yl)pyridin-2-yl)sulfonyl)-1-(2-cyclohexyl-5-methylphenoxy)cyclopropanecarboxamide] |  | 730 | 90 | 4 | 503
7 | Cc1ccc(C2CCC(F)(F)CC2)c(OC2(C(=O)NS(=O)(=O)c3cccc(N)n3)CC2)c1 [Example 1-4, N-((6-Aminopyridin-2-yl)sulfonyl)-1-(2-(4,4-difluorocyclohexyl)-5-methylphenoxy)cyclopropane-1-carboxamide] |  | 3970 | 59 | 437 | 260
8 | Cc1ccc(C2(C)CC2)c(OC2(C(=O)NS(=O)(=O)c3cccc(NC[C@H](C)O)n3)CC2)c1 [Example 4-16, (S)-N-((6-((2-Hydroxypropyl)amino)pyridin-2-yl)sulfonyl)-1-(5-methyl-2-(1-methylcyclopropyl)phenoxy)cyclopropane-1-carboxamide] |  | 3460 | 48 | 9 | 113
9 | O=C(NS(=O)(=O)c1cccc(N2CC[C@H](O)C2)n1)C1(Oc2cc(Cl)ccc2N2CCC3(CCC3)CC2)CC1 [Example 9-12, (S)-1-(5-Chloro-2-(7-azaspiro[3.5]nonan-7-yl)phenoxy)-N-((6-(3-hydroxypyrrolidin-1-yl)pyridin-2-yl)sulfonyl)cyclopropanecarboxamide] |  | 1330 | 160.7 | 776 | 579

Second part, the molecule after the results:

Row | DelF508-CFTR-HRP Amax % (delF508-CFTR-HRP) [%] | EC50 (delF508-CFTR-HRP) [nM] | MTECC24 CFHBEC-Amax % (delF508-CFTR) [%] | EC50 (delF508-CFTR) [nM] | Emax (delF508-CFTR-HRP) [%] | SMILES
10 | 481.9 | 440 | 79.0 | 79 |  | Cc1ccc(C2CCC3(CCCC3)OC2)c(OC2(C(=O)NS(=O)(=O)c3cccc(N4CCC(O)(c5ccc(Cl)cc5)CC4)n3)CC2)c1 (single isomer, unassigned) [Example 11-3-2, N-((6-(4-(4-chlorophenyl)-4-hydroxypiperidin-1-yl)pyridin-2-yl)sulfonyl)-1-(5-methyl-2-(6-oxaspiro[4.5]decan-8-yl)phenoxy)cyclopropane-1-carboxamide]
11 |  | 2020 | 93 | 4 | 620 | Cc1ccc(C2CCCCC2)c(OC2(C(=O)NS(=O)(=O)c3cccc(N(C)CC(C)O)n3)CC2)c1 (centres unmarked) [Example 2-48]
12 |  | 3350 | 78 | 12 | 537 | Cc1ccc(C2CCCC2)c(OC2(C(=O)NS(=O)(=O)c3cccc(NC[C@@H](C)O)n3)CC2)c1 [Example 4-6, (R)-1-(2-Cyclopentyl-5-methylphenoxy)-N-((6-((2-hydroxypropyl)amino)pyridin-2-yl)sulfonyl)cyclopropane-1-carboxamide]
13 |  | 2420 | 97 | 6 | 747 | Cc1ccc(C2CCCCC2)c(OC2(C(=O)NS(=O)(=O)c3cccc(NC[C@H](C)O)n3)CC2)c1 [Example 2-47, (S)-1-(2-Cyclonexyl-5-methylphenoxy)-N-((6-((2-hydroxypropyl)amino)pyridin-2-yl)sulfonyl)cyclopropane-1-carboxamide]
14 |  | 4460 | 82.1 | 1760 | 139 | O=C(NS(=O)(=O)c1cccc(N2CC[C@H](O)C2)n1)C1(Oc2cc(Cl)ccc2N2CC3(C2)CC(F)(F)C3)CC1 [Example 9-22, (S)-1-(5-Chloro-2-(6,6-difluoro-2-azaspiro[3.3]heptan-2-yl)phenoxy)-N-((6-(3-hydroxypyrrolidin-1-yl)pyridin-2-yl)sulfonyl)cyclopropanecarboxamide]
15 |  | 1180 | 113.6 | 261 | 311 | Cc1ccc(OCCC2CCCCC2)c(OC2(C(=O)NS(=O)(=O)c3cccc(N4CC[C@H](O)C4)n3)CC2)c1 [Example 6-11, (S)-1-(2-(2-cyclohexylethoxy)-5-methylphenoxy)-N-((6-(3-hydroxypyrrolidin-1-yl)pyridin-2-yl)sulfonyl)cyclopropanecarboxamide]
16 |  | 490 | 203.8 | 132 | 445 | O=C(NS(=O)(=O)c1cccc(N2CCC(O)(C(F)(F)F)CC2)n1)C1(Oc2cc(Cl)ccc2C2CC3(CCC3)C2)CC1 [Example 7-1, 1-(5-Chloro-2-(spiro[3.3]heptan-2-yl)phenoxy)-N-((6-(4-hydroxy-4-(trifluoromethyl)piperidin-1-yl)pyridin-2-yl)sulfonyl)cyclopropanecarboxamide]
17 |  | 530 | 83 | 49 | 429 | Cc1ccc(C2CCCCC2)c(OC2(C(=O)NS(=O)(=O)c3cccc(N4CCC5(CC4)CC(=O)c4cc(F)ccc4O5)n3)CC2)c1 [Example 2-28, 1-(2-Cyclohexyl-5-methylphenoxy)-N-((6-(6-fluoro-4-oxospiro[chroman-2,4′-piperidin]-1′-yl)pyridin-2-yl)sulfonyl)cyclopropanecarboxamide]
